This passage reports T/C results from PubChem BioAssay AID328 (DTP/NCI, 2004).

In this assay the test system is BDF1 mice, P388 leukemia ip, median survival T/C. Put plainly: NCI In Vivo Anticancer Drug Screen. Data for tumor model P388 Leukemia (intraperitoneal) in B6D2F1 (BDF1) mice. To be noted: endpoint: median survival time, higher = longer survival. The gist of the method:
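T/C = treated-group survival ÷ vehicle-control survival; tumour transplanted into mice before dosing.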

Setting [1] is: dose: 50.0 mg/kg/injection, schedule: Q01DX009 (ip), vehicle: saline with Tween-80.
Setting [2] is: dose: 100.0 mg/kg/injection, schedule: Q01DX009 (ip), vehicle: saline with Tween-80.
[3] abbreviates: dose: 200.0 mg/kg/injection, schedule: Q01DX009 (ip), vehicle: saline with Tween-80.
The mark [4] stands for this setting: dose: 100.0 mg/kg/injection, schedule: Q04DX003 (ip), vehicle: saline.
The mark [5] stands for this setting: dose: 100.0 mg/kg/injection, schedule: Q01DX009 (ip), vehicle: Klucel (hydroxypropylcellulose) (HPC).
Setting [6] is: dose: 200.0 mg/kg/injection, schedule: Q01DX009 (ip), vehicle: Klucel (hydroxypropylcellulose) (HPC).

Molecules are shown by their SMILES. Values joined by “and” are separate entries in the source; they are usually repeats but may differ in a detail not shown here. Equal entries are not always repeated. Toxic doses and inconclusive results are not listed.

In the case of `C=C1C(=O)O[C@@H]2/C=C(/C)[C@@]3(O)C=C[C@](C)(C[C@@H](OC(=O)/C(=C\C)COC(C)=O)[C@@H]12)O3`, the T/C reads like this: (dose: 0.38 mg/kg/injection, schedule: Q01DX010 (ip), vehicle: carboxymethylcellulose (CMC)) 90 % of control; (dose: 0.75 mg/kg/injection, schedule: Q01DX010 (ip), vehicle: carboxymethylcellulose (CMC)) 95 % of control; (dose: 1.0 mg/kg/injection, schedule: Q01DX009 (ip), vehicle: carboxymethylcellulose (CMC)) 103 % of control; (dose: 1.5 mg/kg/injection, schedule: Q01DX010 (ip), vehicle: carboxymethylcellulose (CMC)) 109 % of control; (dose: 2.5 mg/kg/injection, schedule: Q01DX010 (ip), vehicle: saline) 118 % of control; (dose: 3.0 mg/kg/injection, schedule: Q01DX010 (ip), vehicle: carboxymethylcellulose (CMC)) 104 % of control. The T/C was 157 % of control (dose: 5.0 mg/kg/injection, schedule: Q01DX010 (ip), vehicle: carboxymethylcellulose (CMC)); 122 % of control (dose: 5.0 mg/kg/injection, schedule: Q01DX010 (ip), vehicle: saline); 163 % of control (dose: 6.0 mg/kg/injection, schedule: Q01DX010 (ip), vehicle: carboxymethylcellulose (CMC)); 117 % of control (dose: 8.0 mg/kg/injection, schedule: Q01DX009 (ip), vehicle: carboxymethylcellulose (CMC)); 157 % of control (dose: 8.0 mg/kg/injection, schedule: Q01DX010 (ip), vehicle: carboxymethylcellulose (CMC)); 118 % of control (dose: 12.0 mg/kg/injection, schedule: Q01DX010 (ip), vehicle: carboxymethylcellulose (CMC)). The T/C runs as follows: (dose: 18.0 mg/kg/injection, schedule: Q01DX010 (ip), vehicle: saline) 109 % of control; (dose: 27.0 mg/kg/injection, schedule: Q01DX010 (ip), vehicle: carboxymethylcellulose (CMC)) 105 % of control; (dose: 40.0 mg/kg/injection, schedule: Q01DX010 (ip), vehicle: saline) 100 % of control.
On to `CC1(C)N=C(N)N=C(N)N1c1cccc(OCCOc2ccc([N+](=O)[O-])cc2)c1`, for which the T/C is 110 % of control (dose: 50.0 mg/kg/injection, schedule: Q01DX009 (ip), vehicle: saline sonified); 100 % of control (dose: 50.0 mg/kg/injection, schedule: Q04DX003 (ip), vehicle: saline sonified); 160 % of control (dose: 100.0 mg/kg/injection, schedule: Q01DX009 (ip), vehicle: saline sonified); 107 % of control (dose: 100.0 mg/kg/injection, schedule: Q04DX003 (ip), vehicle: saline sonified); 107 % of control (dose: 200.0 mg/kg/injection, schedule: Q04DX003 (ip), vehicle: saline sonified).
`CCN(C(=S)Nc1cccc(OC)c1)c1ccccc1`: the T/C reads like this: under setting [1], 101 % of control; under setting [2], 99 % of control; under setting [3], 101 % of control.
Take `NC1C(O)C(O)C(Nc2ncnc3nc[nH]c23)OC1C(O)CO` (centres undefined): the T/C runs as follows: (dose: 1.5 mg/kg/injection, schedule: Q01DX010 (ip), vehicle: saline) 105 % of control; (dose: 3.0 mg/kg/injection, schedule: Q01DX010 (ip), vehicle: saline) 105 % of control; (dose: 6.0 mg/kg/injection, schedule: Q01DX010 (ip), vehicle: saline) 100 % of control; (dose: 12.0 mg/kg/injection, schedule: Q01DX010 (ip), vehicle: saline) 95 % of control; (dose: 24.0 mg/kg/injection, schedule: Q01DX010 (ip), vehicle: saline) 110 % of control; (dose: 48.0 mg/kg/injection, schedule: Q01DX010 (ip), vehicle: saline) 105 % of control.
Take `O=C(O)c1c(I)c(I)c(I)c(I)c1C(=O)c1ccccc1`: the T/C is, setting by setting: (dose: 44.0 mg/kg/injection, schedule: Q04DX003 (ip), vehicle: saline) 109 % of control; (dose: 67.0 mg/kg/injection, schedule: Q04DX003 (ip), vehicle: saline with Tween-80) 104 % of control; (dose: 67.0 mg/kg/injection, schedule: Q04DX003 (ip), vehicle: saline) 104 % of control; under setting [2], 111 % of control; (dose: 100.0 mg/kg/injection, schedule: Q04DX003 (ip), vehicle: saline with Tween-80) 104 % of control; under setting [4], 118 % of control. Also, the T/C by setting is: (dose: 150.0 mg/kg/injection, schedule: Q04DX003 (ip), vehicle: saline with Tween-80) 109 % of control; (dose: 150.0 mg/kg/injection, schedule: Q04DX003 (ip), vehicle: saline) 113 % of control; under setting [3], 111 % of control; (dose: 200.0 mg/kg/injection, schedule: Q04DX003 (ip), vehicle: saline with Tween-80) 110 % of control; (dose: 400.0 mg/kg/injection, schedule: Q04DX003 (ip), vehicle: saline with Tween-80) 120 % of control.
In the case of `COc1ccc(/C=C(C(=O)O)/C(=C/c2ccc(OC)c(OC)c2)C(=O)O)cc1OC`, the T/C is 100 % of control under setting [5]; 109 % of control under setting [6]; 95 % of control (dose: 200.0 mg/kg/injection, schedule: Q04DX003 (ip), vehicle: Klucel (hydroxypropylcellulose) (HPC)); 95 % of control (dose: 400.0 mg/kg/injection, schedule: Q01DX009 (ip), vehicle: Klucel (hydroxypropylcellulose) (HPC)); 112 % of control (dose: 400.0 mg/kg/injection, schedule: Q04DX003 (ip), vehicle: Klucel (hydroxypropylcellulose) (HPC)).
`CN1CCCCCC1`: the T/C runs as follows: (dose: 150.0 mg/kg/injection, schedule: Q01DX009 (ip), vehicle: saline) 95 % of control; (dose: 225.0 mg/kg/injection, schedule: Q01DX009 (ip), vehicle: saline) 104 % of control; (dose: 335.0 mg/kg/injection, schedule: Q01DX009 (ip), vehicle: saline) 86 % of control.
As to `N#CCc1nc2ccccc2[nH]1`, the T/C is 104 % of control (dose: 50.0 mg/kg/injection, schedule: Q01DX009 (ip), vehicle: Klucel (hydroxypropylcellulose) (HPC)); 109 % of control under setting [5]; 95 % of control under setting [6].
Consider `C/C(=N\[N+](C)(C)C)c1ccccc1`, for which the T/C is, setting by setting: (dose: 50.0 mg/kg/injection, schedule: Q04DX003 (ip), vehicle: saline) 95 % of control; under setting [4], 109 % of control.
Take `COc1ccc(N=Cc2ccc3c(c2)OCO3)cc1`: the T/C under setting [1] was 98 % of control; the T/C under setting [2] is 100 % of control; the T/C under setting [3] was 105 % of control; the T/C (dose: 400.0 mg/kg/injection, schedule: Q01DX009 (ip), vehicle: saline with Tween-80) is 98 % of control.
Turning to `COC1=C(C)C(=O)c2c(c(COC(N)=O)c3n2CC2C3N2C)C1=O` (centres undefined), the T/C (dose: 2.0 mg/kg/injection, schedule: Q01DX009 (ip), vehicle: saline sonified) is 120 % of control.
For `CCOC(=O)C/C(C)=N\NC(=O)c1ccncc1`, the T/C is 88 % of control (dose: 75.0 mg/kg/injection, schedule: Q01DX009 (ip), vehicle: saline with Tween-80) and 102 % of control (dose: 150.0 mg/kg/injection, schedule: Q01DX009 (ip), vehicle: saline with Tween-80).
As to `CCOC(=O)/C=C(/C)Sc1cc(O)c2ccccc2c1O`, the T/C is 101 % of control and 124 % of control (dose: 1.56 mg/kg/injection, schedule: Q01DX009 (ip), vehicle: saline with Tween-80); 119 % of control and 120 % of control (dose: 3.13 mg/kg/injection, schedule: Q01DX009 (ip), vehicle: saline with Tween-80); 124 % of control (dose: 6.25 mg/kg/injection, schedule: Q01DX009 (ip), vehicle: saline with Tween-80); 114 % of control (dose: 12.5 mg/kg/injection, schedule: Q01DX009 (ip), vehicle: saline with Tween-80).
As for `Cc1ccccc1N=C(N)N=C(N)N`, the T/C (dose: 50.0 mg/kg/injection, schedule: Q01DX009 (ip), vehicle: saline) is 100 % of control and the T/C (dose: 100.0 mg/kg/injection, schedule: Q01DX009 (ip), vehicle: saline) was 100 % of control.
Consider `N#Cc1cccc(O)c1`, for which the T/C by setting is: under setting [1], 104 % of control; under setting [2], 100 % of control; under setting [3], 109 % of control.
As to `NC(=O)c1ncccc1C(=O)O`, the T/C is, setting by setting: (dose: 100.0 mg/kg/injection, schedule: Q01DX001 (ip), vehicle: saline with Tween-80) 103 % of control; (dose: 200.0 mg/kg/injection, schedule: Q01DX001 (ip), vehicle: saline with Tween-80) 100 % of control; (dose: 400.0 mg/kg/injection, schedule: Q01DX001 (ip), vehicle: saline with Tween-80) 96 % of control.
Turning to `O=[N+]([O-])c1ccc(S(=O)c2ccccc2)c2c1no[n+]2[O-]` (centres undefined), the T/C (dose: 22.5 mg/kg/injection, schedule: Q01DX009 (ip), vehicle: saline with Tween-80) is 92 % of control and the T/C (dose: 45.0 mg/kg/injection, schedule: Q01DX009 (ip), vehicle: saline with Tween-80) was 93 % of control.
